From patent US11198898B2, “Chemical tools for imaging phospholipase D activity” (CORNELL UNIVERSITY, priority 2017, dated 2021)
Where two headings read alike, the source gives them in different places.

Legend:
[1] = tested on: commercially available PLD; assay: In vitro transphosphatidylation of DOPC with alkynols by a commercially available PLD, CuAAC with Az488, HPLC-fluorescence/ESI-MS; assay type: biochemical; settings: incubated with DOPC and PLD
[2] = tested on: endogenous PLD activity in HeLa cells; assay: Azidoalcohol labelling of PMA-stimulated HeLa cells, lipid extraction, SPAAC with BODIPY-cyclooctyne 1, HPLC; assay type: cell-based, human; settings: for decrease of the signal: isoform-selective inhibitor during labeling
[3] = tested on: PLD activity in live cells; assay type: cell-based
[4] = tested on: PLD activity in HeLa cells; assay: Imaging of PLD-mediated PA synthesis in fixed HeLa cells with alkynols, CuAAC with Az488, confocal microscopy; assay type: cell-based, human
Method: To image sites of PLD-mediated PA synthesis, HeLa cells were treated with each of the three longer-chain alkynols and again stimulated PLD activity acutely with PMA, in the absence or presence of FIPI. Rather than proceeding with a whole-cell lipid extraction, cells were fixed with paraformaldehyde and subjected to CuAAC labeling with Az488. […] The observed labeling pattern was complex, likely the result of PA synthesis on membranes of multiple intracellular compartments. To determine the subcellular locations of the hexynol-based labeling, a series of colocalization studies were performed with markers of various organelle membranes. In these studies, HeLa cells were transfected with plasmids encoding fluorescent protein fusions to constituents of several organellar membranes and then the PA labeling protocol was performed using 1 mM hexynol and, where appropriate, either Az488 or an azide-containing tetramethylrhodamine derivative.

[5] = tested on: basal, endogenous PLD activity in HeLa cells; assay: Basal PLD activity: HeLa cells with 1 mM AzProp, lipid extraction, SPAAC with (1), HPLC; assay type: cell-based, human
Method: Up to this point, the efforts focused on monitoring acute PLD activation in response to a stimulus, by using PMA as a model pharmacological agent to mimic activation of several signal transduction pathways. In the absence of a stimulus, however, it is known that PLD enzymes display a much lower but appreciable level of basal activity.
To accomplish this, HeLa cells were treated with 1 mM AzProp, followed by lipid extraction, SPAAC labeling with (1), and HPLC analysis.

[6] = tested on: basal PLD activity in HeLa cells; assay: Basal PLD activity in live cells: AzProp/SPAAC labelling, confocal microscopy with isoform-selective inhibitors; assay type: cell-based, human; settings: for effect of inhibitor on ER- and Golgi-derived fluorescence: HeLa cells; for effect of inhibitor on the high-fluorescence cell population: confocal microscopy
Method: To image sites of basal PLD activity within live cells, cells were treated with 1 mM AzProp for 2 hours and rinsed. The SPAAC reaction was then performed using (1).
Further experiments then examined the distribution of basal PLD activity at both the cellular and subcellular levels. […] Thus, at the cellular level, the high fluorescence of a minority of cells can be attributed to PLD1 activity, and the moderate fluorescence in the majority of cells to PLD2.
The subcellular localization of AzProp-marked basal PLD activity appeared to be similar to that of AzProp-marked, PMA-stimulated PLD enzymes, that is localized to a mixture of ER, Golgi, endosomal, and lysosomal membranes. Isoform-selective inhibitors were used to probe the relative contributions of each PLD isoform to PA biosynthetic activity on different organelle membranes. […] Thus, it can be concluded that, in HeLa cells, the bulk of ER-localized, basal PLD activity is due to PLD1, whereas PLD activity on Golgi membranes is due to a roughly equal mix of PLD1 and PLD2.

[7] = tested on: mammalian PLDs in HeLa cells; assay: Alkynol labelling of PMA-stimulated HeLa cells, lipid extraction, CuAAC with Az488, HPLC-fluorescence; assay type: cell-based, human; settings: for extent of incorporation into phosphatidyl alcohols compared to the shorter alkynols: at the same concentration
Method: Further experiments evaluated whether mammalian PLDs would accept alkynols as substrates within live cells. HeLa cells were treated with each of the five alkynols for 20 minutes, stimulated acute PA biosynthesis pharmacologically using phorbol 12-myristate 13-acetate (PMA) (McDermott M, et al., Biochem. Cell Biol. 2004 February; 82(1):225-53), and then isolated total cellular lipid extracts. Following CuAAC labeling with Az488, the samples were analyzed by HPLC coupled to fluorescence detection. The HPLC-fluorescence results for the five alkynols (denoted as 1, 2, 3, 4, or 5 in panels 1-5, respectively) are shown in FIG. 2B.
While all five alkynols were accepted as transphosphatidylation substrates in HeLa cells, they were processed by cellular PLDs with different efficiencies. […] The molecular identities of the fluorescently labeled phosphatidyl alcohols (PA analogs) were verified by analyzing labeled extracts from cells treated with each of the three longer-chain alkynols by HPLC followed by ESI-MS.
This robust labeling with pentynol, hexynol, and heptynol led to further experiments to investigate whether the dose of alkynol could be lowered. The initial concentration of 12.9 mM alkynol corresponded to the low end of the concentration range of 0.1-0.5 mol % that is typically used in the traditional TLC-based butanol transphosphatidylation assay. Such high concentrations of alcohol, however, have several negative consequences. First, they are sufficient to compete with water in the PLD active site and reduce the ability of PLDs to synthesize PA, thus impacting PA-dependent signaling.

[8] = HeLa cells, PMA, SPAAC with BODIPY-cyclooctyne 1
[9] = PMA-stimulated HeLa cells, HPLC

C#CCCO [3-butyn-1-ol]
formation of the expected fluorescent phosphatidyl alcohol product (PLD substrate in vitro) [1]: confirmed the identity of the expected fluorescent phosphatidyl alcohol products

[N-]=[N+]=NCCCCO [AzBut, 4-azido-1-butanol]
fluorescent lipid species by HPLC [2, 8]: presence of fluorescent lipid species
efficacy as PLD substrate [2, 9]: performed roughly equivalently

[N-]=[N+]=NCCO [AzEt, 2-azidoethanol]
efficacy as PLD substrate [2]: poorer PLD substrate
fluorescent lipid species by HPLC [2]: presence of fluorescent lipid species
signal-to-background among the azidoalcohols [3]: highest

[N-]=[N+]=NCCCCCO [AzPent, 5-azido-1-pentanol]
fluorescent lipid species by HPLC [2, 8]: presence of fluorescent lipid species
efficacy as PLD substrate [2, 9]: performed roughly equivalently

O=C(NCCN1CCC(n2c(=O)[nH]c3ccccc32)CC1)c1cc2cc(F)ccc2[nH]1 [FIPI, 5-fluoro-2-indolyl deschlorohalopemide, reference compound]
labeling in cells treated with alkynol and PLD inhibitor (negative control) ([4]; PMA, CuAAC with Az488): minimal background labeling
effect of inhibitor on fluorescent lipid species ([2]; treatment of cells during the labeling procedure, PMA-stimulated): complete loss of the fluorescent lipid species
effect of inhibitor on basal phosphatidyl alcohol production ([5]; unstimulated HeLa cells): prevented phosphatidyl alcohol production

C[C@@H](CN1CCC(n2c(=O)[nH]c3cc(Br)ccc32)CC1)NC(=O)[C@@H]1C[C@H]1c1ccccc1 [VU0359595]
decrease of the signal ([2]; PMA-stimulated HeLa cells): approximately 75%
share of the unstimulated PLD activity attributed to the inhibited isoform [5]: roughly half
effect of inhibitor on ER- and Golgi-derived fluorescence [6]: selective disappearance of most of the ER-derived fluorescence but only a portion of the Golgi-derived fluorescence
effect of inhibitor on the high-fluorescence cell population [6]: disappearance of high-fluorescence cells

O=C(NCCN1CCC2(CC1)C(=O)NCN2c1cccc(F)c1)c1ccc2ccccc2c1 [VU0364739]
decrease of the signal ([2]; PMA-stimulated HeLa cells): ~25%
share of the unstimulated PLD activity attributed to the inhibited isoform [5]: roughly half
effect of inhibitor on ER- and Golgi-derived fluorescence [6]: decrease in Golgi-derived fluorescence but had minimal effect on ER-derived fluorescence
effect of inhibitor on the high-fluorescence cell population [6]: did not eliminate the high-fluorescence population

C#CCCCCCO [heptynol, 6-heptyn-1-ol]
formation of the expected fluorescent phosphatidyl alcohol product (PLD substrate in vitro) [1]: confirmed the identity of the expected fluorescent phosphatidyl alcohol products
extent of incorporation into phosphatidyl alcohols compared to the shorter alkynols [7]: incorporated to a greater extent into phosphatidyl alcohols

C#CCCCCO [hexynol, 5-hexyn-1-ol]
formation of the expected fluorescent phosphatidyl alcohol product (PLD substrate in vitro) [1]: confirmed the identity of the expected fluorescent phosphatidyl alcohol products
alkynol concentration at which PA production could be detected in cells ([7]; HPLC): ≥ 100 µM
extent of incorporation into phosphatidyl alcohols compared to the shorter alkynols [7]: incorporated to a greater extent into phosphatidyl alcohols
alkynol concentration permitting detection of alkynol-dependent and FIPI-sensitive fluorescence ([4]; confocal microscopy): ≥ 100 µM
signal-to-background ratio among the three longer-chain alkynols ([4]; confocal microscopy): highest signal-to-background ratio

C#CCCCO [pentynol, 4-pentyn-1-ol]
formation of the expected fluorescent phosphatidyl alcohol product (PLD substrate in vitro) [1]: confirmed the identity of the expected fluorescent phosphatidyl alcohol products
extent of incorporation into phosphatidyl alcohols compared to the shorter alkynols [7]: incorporated to a greater extent into phosphatidyl alcohols

C#CCO [propynol]
formation of the expected fluorescent phosphatidyl alcohol product (PLD substrate in vitro) [1]: confirmed the identity of the expected fluorescent phosphatidyl alcohol products
